# In patent US20250115597A1, “TYK2 INHIBITORS AND COMPOSITIONS AND METHODS THEREOF” (LYNK PHARMACEUTICALS CO. LTD., priority 2021, published 2025):
# Where two headings read alike, the source gives them in different places.
# Key:
# [1] = target: T1, Ba/F3-FL-TYK2-P760L cells (Homo sapiens, UniProt P29597, P760L, cells depend on it); test: Anti-proliferative assay, Ba/F3-FL-TYK2-P760L cells (Cell-Titer Glo); type: cell-based; details: 72 h, read-out: BaF3-FL-T2P760L IC50
# T1 construct: BaF3-FL-T2P760L (nM)
# T1 sequence (P29597 whole entry P760L): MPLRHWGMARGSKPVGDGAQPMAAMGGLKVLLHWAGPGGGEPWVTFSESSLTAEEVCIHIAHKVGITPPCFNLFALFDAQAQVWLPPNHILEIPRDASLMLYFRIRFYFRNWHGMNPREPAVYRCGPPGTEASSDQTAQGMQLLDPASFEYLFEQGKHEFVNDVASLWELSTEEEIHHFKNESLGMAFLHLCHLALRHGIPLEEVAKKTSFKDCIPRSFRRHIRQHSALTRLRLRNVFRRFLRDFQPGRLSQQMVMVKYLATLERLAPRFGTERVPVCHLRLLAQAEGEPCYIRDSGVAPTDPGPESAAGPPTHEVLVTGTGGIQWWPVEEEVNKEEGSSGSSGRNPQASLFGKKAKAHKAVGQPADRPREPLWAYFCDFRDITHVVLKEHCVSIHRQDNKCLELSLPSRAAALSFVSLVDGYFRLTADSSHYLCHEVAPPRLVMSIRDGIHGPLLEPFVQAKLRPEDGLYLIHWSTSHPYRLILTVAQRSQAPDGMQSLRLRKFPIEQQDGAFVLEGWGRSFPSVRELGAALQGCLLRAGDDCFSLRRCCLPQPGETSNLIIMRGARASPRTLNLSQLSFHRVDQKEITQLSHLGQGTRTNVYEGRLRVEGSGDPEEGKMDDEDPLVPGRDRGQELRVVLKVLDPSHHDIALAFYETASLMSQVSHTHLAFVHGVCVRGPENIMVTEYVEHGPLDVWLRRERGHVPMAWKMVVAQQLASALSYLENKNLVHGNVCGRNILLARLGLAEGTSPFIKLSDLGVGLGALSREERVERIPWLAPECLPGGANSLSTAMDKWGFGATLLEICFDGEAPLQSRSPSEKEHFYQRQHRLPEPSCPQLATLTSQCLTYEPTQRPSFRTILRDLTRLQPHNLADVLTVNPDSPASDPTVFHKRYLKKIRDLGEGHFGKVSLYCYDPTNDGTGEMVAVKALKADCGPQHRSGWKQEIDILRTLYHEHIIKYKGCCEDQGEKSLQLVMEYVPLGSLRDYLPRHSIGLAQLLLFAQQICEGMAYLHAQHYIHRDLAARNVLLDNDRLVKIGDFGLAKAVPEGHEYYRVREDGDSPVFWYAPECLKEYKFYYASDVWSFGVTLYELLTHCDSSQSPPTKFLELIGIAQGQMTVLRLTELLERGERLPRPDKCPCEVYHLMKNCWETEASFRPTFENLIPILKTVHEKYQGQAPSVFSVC
# How it was run: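 Compound exposure ran 72 h at 37 °C in 5% CO2 across nine 3-fold concentrations from a 20 μM top dose, added 24 h after seeding 2000 cells/well.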
# [2] = Microsomal metabolic stability assay; type: in vitro ADME; details: pH 7.4, 0.5 mg/mL protein, 1 μM compound
# How it was run: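 Parent loss was tracked by LC/MS/MS at 0, 5, 15, 30 and 45 min, with half-life derived from the ln(% remaining)–time slope. Incubation at 37 °C, pH 7.4 phosphate/EDTA buffer: 0.5 mg/mL microsomes, 1 μM compound, NADPH-regenerated (2 mM).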
# [3] = Plasma protein binding by equilibrium dialysis; type: in vitro ADME; details: human plasma, equilibrium dialysis 5 hours at 37° C.; read-out: % Bound (human) (converted)
# Description: Plasma Protein Binding by Equilibrium Dialysis
# Aliquots of test compound stock solution and warfarin stock solution were spiked into plasma to give the matrix solutions with theoretical concentrations of test compound at 0.2 and 2 μM or warfarin at 2 μM. Immediately transfer 50 μL of the spiked plasma solution suspension to a 96-well plate to act as T=0 control sample. Assemble the dialysis set up following the manufacturer's instructions. Load cells with 150 μL of plasma sample and dialyzed against equal volume of dialysis buffer (PBS). The assay is performed in duplicate. Cover the unit with gas permeable lid and incubate for 5 hours at 37° C. at 100 rpm in a constant temperature shaking box. At the end of incubation, remove lid and pipette 50 μL of post-dialysis samples from both buffer and plasma solution chambers into separated 96-well plate for analysis, respectively. Add 50 μL of plasma solution to the buffer samples, and an equal volume of PBS to the collected plasma solution samples. Shake the plate at 1000 rpm for 2 minutes and add 600 μL of 50% ACN/MeOH containing an appropriate internal standard (IS) to precipitate protein and release compound. Vortex at 1000 rpm for 10 minutes. Centrifuge for 10 minutes at 4000 rpm. Then transfer 75 μL of the supernatant to new 96-well plates for analysis. Add 150 μL of distilled water to each sample and mix for analysis by LC-MS/MS.
# The free rate (% Unbound), binding rate (% Bound), and recovery rate (% Recovery) of the compound are calculated as follows: […]
# pSTAT1 = test: Phosphorylation inhibition of STAT in human whole blood, IFN-alpha stimulated (flow cytometry); type: cell-based; details: 20 min, read-out: IC50 on pSTAT1 inhibition in h WB
# Description: Phosphorylation Inhibition of STAT in Human PBMC and Human Whole Blood Testing:
# The inhibitory potential of test articles in human PBMC and human whole blood assay was evaluated by the method of flow cytometry.
# IFN-alpha will activate JAK1 and TYK2 kinase in T cells by binding to IFN receptors, and then lead to phosphorylation of STAT1 and STAT2. The phosphorylated STAT1 enter nuclear and promote transcription and expression of IFN-gamma. To evaluate the efficacy of TYK2i in T cells, freshly prepared human PBMC or freshly collected human whole blood will be stimulated with certain unit of human IFN-alpha (Universal Type I IFN(1MU), R&D, 11200-2) for 20 mins in incubator. After stimulation, fix cells with Phosflow™ Fix Buffer I (BD, 557870), and then collect fixed cells by centrifugation (500 g, 8 min). Wash cells once with pre-cooled PBS, and then permeabilize cells with cold Perm Buffer III buffer (BD, 558050) for 45 mins on ice. Collect cells by centrifugation (600 g, 8 min) and washed twice with cold PBS. Stain cells with anti-human CD3 (FITC Mouse Anti-Human CD3, BD, 555332) and anti-pSTAT1_Y701(Alexa Fluor 647 Mouse Anti-Stat1 (pY701), BD, 612597) antibodies. Detect pSTAT1 by flow cytometry (CytoFlex S) and analyze data with FlowJo and GraphPad Prism 8 software. IC50 values of test articles were determined using 4-parameter logistic equation.
# [4] = Hepatocytes metabolic stability assay; type: in vitro ADME; details: cryopreserved hepatocytes, human hepatocytes, 1.0×10^6 cells/mL; for half-life at 1 μM: read-out: Human hepatocyte stability T1/2
# Description: Hepatocytes Metabolic Stability Assay
# The vials of cryopreserved hepatocytes were removed from the liquid nitrogen container and immediately immersed in a 37° C. water bath for approximately 2 min. The melted ice pellets were transferred into tubes containing 50 mL of pre-warmed thawing medium and mixed well by gently inverting the tubes, and then centrifuged at 500 rpm for 3 minutes at room temperature. The supernatants were discarded, and cell pellets were re-suspended by adding appropriate volumes of pre-warmed incubation medium. The cells viability of each species was determined using Trypan Blue exclusion. Add 50 μL of pre-warmed 2× dosing solution to the wells designated for different time points. Then 50 μL of cells suspension (2×10^6 cells/mL) were added into appropriate wells at corresponding time points of T15, T30, T60, T120. Start timing and put the plate in an incubator at 37° C. For TO sample, add 300 μL of ACN containing internal standard to the wells, mix gently, then add 50 μL of pre-warmed hepatocytes solution (2×10^6 cells/mL). The concentration of test compound was 1 μM and 1.0×10^6 cells/mL in the final incubation. At each corresponding time point, test and control compounds reaction samples were stopped by adding 300 μL acetonitrile containing internal standard. All sample plates were thoroughly mixed and centrifuged at 5000×g for 15 minutes. The supernatants were diluted at ratio of 1:1 with ultra-pure water for test and positive controls. Then submitted for LC-MS/MS analysis.
# The analyte/internal standard peak area ratios were converted to percentage remaining with the following equation: […]
# The in vitro elimination constant, k of test compounds and control compounds were calculated from a log linear plot of % Remaining versus time, then the half-life (T1/2), the estimation of the in vitro hepatic intrinsic clearance (CLint) values were calculated from substrate disappearance rate in hepatocytes incubation: […]
# TYK2-JH2 domain = target: T2, TYK2-JH2 domain (Homo sapiens, UniProt P29597); test: Binding activity test for JH2 domain of TYK2 (Tb-antibody/tracer FRET); details: for JAK1/TYK2 selectivity: ratio JAK1-JH2 IC50 / TYK2-JH2 IC50
# T2 construct: IC50 on JH2 domain activity (nM)
# T2 sequence (P29597 589-875 limits assumed): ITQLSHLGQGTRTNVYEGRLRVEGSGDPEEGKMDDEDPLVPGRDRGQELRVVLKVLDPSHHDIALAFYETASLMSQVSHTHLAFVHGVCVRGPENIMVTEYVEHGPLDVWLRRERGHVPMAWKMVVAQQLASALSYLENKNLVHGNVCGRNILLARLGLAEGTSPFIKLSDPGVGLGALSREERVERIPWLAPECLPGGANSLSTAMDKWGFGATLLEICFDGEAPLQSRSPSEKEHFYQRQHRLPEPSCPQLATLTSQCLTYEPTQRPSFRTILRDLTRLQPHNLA
# How it was run: (§1)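 FRET read-out after 60 min at 25° C plus overnight at 4° C; tracer displacement detected via Tb-labelled antibody on the JH2 domain. Dose-response used 11 points at 3-fold dilution.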
# JAK1-JH2 domain = target: T3, JAK1-JH2 domain (Homo sapiens, UniProt P23458); test: Binding activity test for JH2 domain of JAK1 (Tb-antibody/tracer FRET)
# T3 construct: IC50 on JH2 domain activity (nM)
# T3 sequence (P23458 583-855 limits assumed): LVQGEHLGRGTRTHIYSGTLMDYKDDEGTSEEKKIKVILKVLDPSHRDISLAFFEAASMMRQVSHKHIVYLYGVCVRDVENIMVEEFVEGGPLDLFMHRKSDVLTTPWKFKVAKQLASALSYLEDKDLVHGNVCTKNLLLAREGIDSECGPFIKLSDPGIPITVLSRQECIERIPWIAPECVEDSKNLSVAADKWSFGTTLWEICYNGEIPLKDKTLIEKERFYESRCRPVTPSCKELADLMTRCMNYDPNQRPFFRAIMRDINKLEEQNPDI
# How it was run: as §1
# [5] = dog liver microsomes, read-out: Dog LM Clint
# [6] = dog liver microsomes, read-out: Dog LM T½
# [7] = human liver microsomes, read-out: Human LM Clint
# [8] = human liver microsomes, read-out: Human LM T½
# [9] = rat liver microsomes, read-out: Rat LM Clint
# [10] = rat liver microsomes, read-out: Rat LM T½
# [11] = human whole blood, IFN-alpha 20 mins, CD3 cells
SMILES,GI50 [1],"microsomal CLint at 1 μM [2, 5]","half-life at 1 μM [2, 6]","microsomal CLint at 1 μM [2, 7]","half-life at 1 μM [2, 8]","microsomal CLint at 1 μM [2, 9]","half-life at 1 μM [2, 10]",fraction unbound at 5 h [3],IC50 (pSTAT1; [11]),CLint scaled at 1 μM ([4]; read-out: Human hepatocyte Clint(liver)),half-life at 1 μM [4],IC50 (TYK2-JH2 domain),JAK1/TYK2 selectivity (TYK2-JH2 domain),IC50 (JAK1-JH2 domain),IC50 (pSTAT1; Homo sapiens)
"CNC(=O)c1cnc(NC(=O)C2CC2)cc1Nc1nn(C)c2ccn(CC(F)(F)F)c(=O)c12 [Example 52, 6-(Cyclopropanecarboxamido)-N-methyl-4-((1-methyl-4-oxo-5-(2,2,2-trifluoroethyl)-4,5-dihydro-1H-pyrazolo[4,3-c]pyridin-3-yl)amino)nicotinamide]",127 nM,11.1 µL/min/mg,125 min,8.05 µL/min/mg,172 min,30.8 µL/min/mg,45 min,0.041,,,,,,,
"CNC(=O)c1cnc(NC(=O)C2CC2)nc1Nc1cccc(-c2ncn(C)n2)c1OC [Example 65, 2-(Cyclopropanecarboxamido)-4-((2-methoxy-3-(1-methyl-1H-1,2,4-triazol-3-yl)phenyl)amino)-N-methylpyrimidine-5-carboxamide]",172 nM,,,,,,,0.061,,,,,,,
"[2H]C([2H])([2H])NC(=O)c1cnc(NC(=O)C2CC2)cc1Nc1nn(CCCOC)c2ccn(CC(F)(F)F)c(=O)c12 [Example 96, 6-(Cyclopropanecarboxamido)-4-((1-(3-methoxypropyl)-4-oxo-5-(2,2,2-trifluoroethyl)-4,5-dihydro-1H-pyrazolo[4,3-c]pyridin-3-yl)amino)-N-(methyl-d3)nicotinamide]",351 nM,,,16.7 µL/min/mg,83 min,,,0.171,,,,,,,
"[2H]C([2H])([2H])NC(=O)c1cnc(Nc2ccn(C)n2)cc1Nc1cc(F)c2cnn(CC)c2c1OC [Example 151, 4-((1-Ethyl-4-fluoro-7-methoxy-1H-indazol-6-yl)amino)-N-(methyl-d3)-6-((1-methyl-1H-pyrazol-3-yl)amino)nicotinamide]",77.7 nM,46.8 µL/min/mg,29.6 min,63.5 µL/min/mg,21.8 min,66.3 µL/min/mg,20.9 min,,1860 nM,9.1 mL/min/kg,194 min,0.46 nM,28.5,13.1 nM,
"[2H]C([2H])([2H])NC(=O)c1cnc(Nc2cc(C)nc(C)n2)cc1Nc1cc(F)c2cnn(CC)c2c1OC [Example 152, 6-((2,6-Dimethylpyrimidin-4-yl)amino)-4-((1-ethyl-4-fluoro-7-methoxy-1H-indazol-6-yl)amino)-N-(methyl-d3)nicotinamide]",27.9 nM,478 µL/min/mg,2.9 min,42.4 µL/min/mg,32.7 min,54.1 µL/min/mg,25.6 min,,78.5 nM,,> 240 min,0.171 nM,62.6,10.7 nM,
"[2H]C([2H])([2H])NC(=O)c1cnc(NC(=O)C2CC2)cc1Nc1ccc2ccn(CC)c2c1OC [Example 244, 6-(Cyclopropanecarboxamido)-4-((1-ethyl-7-methoxy-1H-indol-6-yl)amino)-N-(methyl-d3)nicotinamide]",18.1 nM,,,,,,,,,,,0.125 nM,36.6,4.58 nM,190 nM

# Continued, in another order:
GI50 [1],"microsomal CLint at 1 μM [2, 5]","half-life at 1 μM [2, 6]","microsomal CLint at 1 μM [2, 7]","half-life at 1 μM [2, 8]","microsomal CLint at 1 μM [2, 9]","half-life at 1 μM [2, 10]",fraction unbound at 5 h [3],IC50 (pSTAT1; [11]),CLint scaled at 1 μM ([4]; read-out: Human hepatocyte Clint(liver)),half-life at 1 μM [4],IC50 (TYK2-JH2 domain),JAK1/TYK2 selectivity (TYK2-JH2 domain),IC50 (JAK1-JH2 domain),SMILES,IC50 (pSTAT1; Homo sapiens)
44.7 nM,,,,,,,,440 nM,,,0.262 nM,25.7,6.74 nM,"[2H]C([2H])([2H])NC(=O)c1cnc(NC(=O)C2CC2)cc1Nc1ccn2ncc(Cl)c2c1OC [Example 235, 4-((3-Chloro-4-methoxypyrazolo[1,5-a]pyridin-5-yl)amino)-6-(cyclopropanecarboxamido)-N-(methyl-d3)nicotinamide]",
84.7 nM,,,,,,,,157 nM,,,0.188 nM,28.8,5.41 nM,"[2H]C([2H])([2H])NC(=O)c1cnc(NC(=O)C2CC2)cc1Nc1ccn2ncc(CC#N)c2c1OC [Example 239, 4-((3-(Cyanomethyl)-4-methoxypyrazolo[1,5-a]pyridin-5-yl)amino)-6-(cyclopropanecarboxamido)-N-(methyl-d3)nicotinamide]",
75.7 nM,,,,,,,,287 nM,,,0.156 nM,75.9,11.8 nM,"C=CCn1cc(Nc2cc(NC(=O)C3CC3)ncc2C(=O)NC)c2c(=O)n(CC)ccc21 [Example 246, 4-((1-Allyl-5-ethyl-4-oxo-4,5-dihydro-1H-pyrrolo[3,2-c]pyridin-3-yl)amino)-6-(cyclopropanecarboxamido)-N-methylnicotinamide]",
76.2 nM,,,,,,,,94.3 nM,,,0.287 nM,154,44.2 nM,"[2H]C([2H])([2H])NC(=O)c1cnc(NC(=O)C2CC2)cc1Nc1ncc2cnn(CC(F)(F)F)c2c1OC [Example 266, 6-(Cyclopropanecarboxamido)-4-((7-methoxy-1-(2,2,2-trifluoroethyl)-1H-pyrazolo[4,3-c]pyridin-6-yl)amino)-N-(methyl-d3)nicotinamide]",
